According to patent publication US11179348B2, “Combination comprising pterostilbene for the treatment of cancer” (FUNDACIÓN UNIVERSIDAD CATÓLICA DE VALENCIA SAN VICENTE …, priority 2015, dated 2021):
Marks after values point to notes of the source that are not given here.

How the values were obtained:
[1] = tested on: HepG2 hepatocellular carcinoma; assay: In vivo growth of HepG2 liver cancer xenografts; set-up: species or system human; settings: HepG2, day 35
[2] = Hematology, clinical chemistry and urinary balance in tumor-bearing mice treated with Pter; type: in vivo; settings: Pter 30 mg/kg i.v.

## COc1cc(/C=C/c2ccc(O)cc2)cc(OC)c1 [Pter, trans-3,5-dimethoxy-4′-hydroxystilbene]
[1]
  Tumor vol.: 375 ± 106* mm^3
[2]; A2058-bearing mice, day 35
  % CD3: 1.2 ± 0.2%
  Alanine aminotransferase: 7.0 ± 1.6 IU/L
  Albumin: 2.9 ± 0.6 g/dL
  Alkaline phosphatase: 140 ± 21 IU/L
  Aspartate aminotransferase: 140 ± 27 IU/L
  B cells: 63.4 ± 7.7
  Basophils: 0.0 ± 0.0 10^3/μL
  CD4: 0.9 ± 0.1
  CD8: 0.4 ± 0.05
  Chloride: 99 ± 10 mEq/L
  Creatinine: 0.5 ± 0.1 mg/dL
  Direct bilirubin: 0.1 ± 0.03 mg/dL
  Eosinophils: 0.05 ± 0.02 10^3/μL
  Erythrocytes: 7.0 ± 0.2^† 10^6/μL
  GGT: 2.0 ± 0.5 IU/L
  Glucose: 157 ± 19 mg/dL
  Hematocrit: 34.4 ± 3.0%
  Hemoglobin: 12.1 ± 0.4 g/dL
  Isolated CD2^+ lymphocytes: Cell volume: 164 ± 15 μm^3
  Isolated CD2^+ lymphocytes: GSH: 4.3 ± 0.5 nmol/10^6 cells
  Isolated CD2^+ lymphocytes: Glucose utilization: 1.24 ± 0.08 µmol/g/min
  Isolated CD2^+ lymphocytes: Glutamine utilization: 3.35 ± 0.32 µmol/g/min
  Isolated hepatocytes: Cell volume: 2.9 ± 0.2 μL/mg dry wt.
  Isolated hepatocytes: GSH: 4760 ± 377 nmol/g of cells
  Isolated hepatocytes: Glucose utilization: 1.57 ± 0.12 µmol/g/min
  Lactate dehydrogenase: 251 ± 38 IU/L
  Leukocytes: 2.2 ± 0.4 10^3/μL
  Lymphocytes: 1.3 ± 0.2 10^3/μL
  Monocytes: 0.04 ± 0.02* 10^3/μL
  NK: 4.1 ± 1.5
  Neutrophils: 0.8 ± 0.2 10^3/μL
  Plasma osmolality: 278 ± 15 mOsm/kg
  Platelets: 393 ± 36 10^3/μL
  Potassium: 7.7 ± 1.6 mEq/L
  Sodium: 152 ± 20 mEq/L
  Total bilirubin: 0.5 ± 0.1 mg/dL
  Total protein: 3.9 ± 0.5 g/dL
  Urea: 50.4 ± 3.1 mg/dL
  Uric acid: 1.8 ± 0.4 mg/dL
  Urinary balance: Bilirubin: Negative
  Urinary balance: Erythrocytes: Negative
  Urinary balance: GFR: 167 ± 30 µL/min
  Urinary balance: Glucose: Normal
  Urinary balance: Ketones: Negative
  Urinary balance: Leukocytes: Negative
  Urinary balance: Nitrite: Negative
  Urinary balance: Protein: 0.2 g/L
  Urinary balance: Urobilinogen: Normal
  Urinary balance: pH: 7.7 ± 0.5
[2]; AsPC-1-bearing mice, day 28
  % CD3: 0.9 ± 0.3%
  Alanine aminotransferase: 13.2 ± 3.5 IU/L
  Albumin: 3.0 ± 0.6 g/dL
  Alkaline phosphatase: 147 ± 18 IU/L
  Aspartate aminotransferase: 166 ± 27 IU/L
  B cells: 71.4 ± 11.4
  Basophils: 0.0 ± 0.0 10^3/μL
  CD4: 0.8 ± 0.1
  CD8: 0.2 ± 0.1
  Chloride: 106 ± 9 mEq/L
  Creatinine: 0.5 ± 0.1 mg/dL
  Direct bilirubin: 0.1 ± 0.03 mg/dL
  Eosinophils: 0.04 ± 0.02 10^3/μL
  Erythrocytes: 6.2 ± 0.1^† 10^6/μL
  GGT: 2.3 ± 0.4 IU/L
  Glucose: 136 ± 20 mg/dL
  Hematocrit: 30.1 ± 1.5 %
  Hemoglobin: 12.0 ± 0.3 g/dL
  Isolated CD2^+ lymphocytes: Cell volume: 177 ± 14 μm^3
  Isolated CD2^+ lymphocytes: GSH: 4.2 ± 0.6 nmol/10^6 cells
  Isolated CD2^+ lymphocytes: Glucose utilization: 1.23 ± 0.15 µmol/g/min
  Isolated CD2^+ lymphocytes: Glutamine utilization: 3.40 ± 0.12 µmol/g/min
  Isolated hepatocytes: Cell volume: 3.0 ± 0.3 μL/mg dry wt.
  Isolated hepatocytes: GSH: 4420 ± 444 nmol/g of cells
  Isolated hepatocytes: Glucose utilization: 1.50 ± 0.13 µmol/g/min
  Lactate dehydrogenase: 288 ± 30 IU/L
  Leukocytes: 1.9 ± 0.3* 10^3/μL
  Lymphocytes: 1.1 ± 0.2 10^3/μL
  Monocytes: 0.05 ± 0.02 10^3/μL
  NK: 2.7 ± 1.1
  Neutrophils: 0.6 ± 0.2^† 10^3/μL
  Plasma osmolality: 278 ± 16 mOsm/kg
  Platelets: 312 ± 55^† 10^3/μL
  Potassium: 8.9 ± 1.7 mEq/L
  Sodium: 149 ± 14 mEq/L
  Total bilirubin: 0.5 ± 0.1 mg/dL
  Total protein: 3.5 ± 0.5 g/dL
  Urea: 52.4 ± 5.7 mg/dL
  Uric acid: 1.6 ± 0.3 mg/dL
  Urinary balance: Bilirubin: Negative
  Urinary balance: Erythrocytes: Negative
  Urinary balance: GFR: 186 ± 17 µL/min
  Urinary balance: Glucose: Normal
  Urinary balance: Ketones: Negative
  Urinary balance: Leukocytes: Negative
  Urinary balance: Nitrite: Negative
  Urinary balance: Protein: 0.3 g/L
  Urinary balance: Urobilinogen: Normal
  Urinary balance: pH: 7.7 ± 0.4
